The term pKi denotes −log10 of the Ki, conventionally taken in molar units.

The values below come from US7998965B2, “Glutamate aggrecanase inhibitors” (Wyeth LLC, priority 2005, dated 2011).

pIC50, pKi: −log10 of the molar value. Where two headings read alike, the source gives them in different places. Some results are limits rather than exact numbers.

For experiment [1], the target named is T1, purified recombinant human Aggrecanase-1 (rAgg1) (Homo sapiens, UniProt O75173).
T1 sequence (O75173 213-837): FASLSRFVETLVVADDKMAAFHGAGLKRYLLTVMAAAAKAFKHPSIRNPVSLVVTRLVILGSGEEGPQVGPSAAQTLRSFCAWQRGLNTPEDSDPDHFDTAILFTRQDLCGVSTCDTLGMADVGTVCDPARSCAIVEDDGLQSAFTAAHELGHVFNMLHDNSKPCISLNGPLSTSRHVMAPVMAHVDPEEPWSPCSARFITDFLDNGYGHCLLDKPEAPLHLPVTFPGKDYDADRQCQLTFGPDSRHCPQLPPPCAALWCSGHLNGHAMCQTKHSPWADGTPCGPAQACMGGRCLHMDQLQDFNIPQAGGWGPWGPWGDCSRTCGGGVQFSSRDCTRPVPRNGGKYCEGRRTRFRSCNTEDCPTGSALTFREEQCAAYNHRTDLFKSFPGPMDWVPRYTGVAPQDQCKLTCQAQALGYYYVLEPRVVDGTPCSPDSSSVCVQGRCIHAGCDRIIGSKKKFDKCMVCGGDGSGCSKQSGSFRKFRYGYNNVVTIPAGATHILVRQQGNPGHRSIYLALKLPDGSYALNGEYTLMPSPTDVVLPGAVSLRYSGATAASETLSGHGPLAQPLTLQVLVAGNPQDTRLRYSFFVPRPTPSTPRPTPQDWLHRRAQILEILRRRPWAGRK
Description: In vitro fluorescence screen for Aggrecanase-1 inhibitors. The format is biochemical. The conditions noted are these: Table 1; for pKi: enzyme not given, column follows Agg1 IC50, read-out: Ki; for pIC50: read-out: Agg1 IC50.

Experiment [2] deals with T2, purified recombinant human Aggrecanase-2 (Ag2t-Phe628-Strep) (Homo sapiens, UniProt Q9UNA0).
T2 construct: the form used is denoted as Ag2t-Phe628-Strep (MW=41,737)
T2 sequence (Q9UNA0 262-628): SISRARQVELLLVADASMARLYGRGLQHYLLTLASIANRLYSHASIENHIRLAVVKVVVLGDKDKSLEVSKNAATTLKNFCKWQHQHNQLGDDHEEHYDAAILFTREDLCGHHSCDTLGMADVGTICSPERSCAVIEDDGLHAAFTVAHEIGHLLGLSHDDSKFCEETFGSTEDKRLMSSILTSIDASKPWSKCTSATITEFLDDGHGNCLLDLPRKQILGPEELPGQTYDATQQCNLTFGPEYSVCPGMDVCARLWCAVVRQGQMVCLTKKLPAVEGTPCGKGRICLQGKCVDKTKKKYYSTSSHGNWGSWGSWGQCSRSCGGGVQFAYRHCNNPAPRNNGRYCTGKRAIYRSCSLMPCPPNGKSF
Description: In vitro fluorescence screen for Aggrecanase-2 inhibitors. In kind it is biochemical. The note with it: Table 1; read-out: Agg 2 IC50.

Experiment [3] deals with T3, recombinant human catalytic domain of MMP-13 (Homo sapiens, UniProt P45452).
T3 construct: catalytic domain of MMP-13 (165 amino acids, residues 104-268, 19 kDa)
Description: In vitro fluorescence assay of MMP-13 activity. The conditions noted are these: Table 1; unit inferred. In kind it is biochemical.

Experiment [4] has as its target T4, recombinant human catalytic domain of MMP-14 (Homo sapiens, UniProt P50281).
T4 construct: 177 amino acids corresponding to Tyr89-Gly265 of mature human enzyme; purchased Chemicon International, Inc. CC1041
The experiment is described as follows: In vitro fluorescence assay of MMP-14 activity. In kind it is biochemical. The note with it: Table 1; for pIC50: unit inferred.

For experiment [5], the target named is T5, MMP-1 (Homo sapiens, UniProt P03956).
T5 sequence (P03956 100-469): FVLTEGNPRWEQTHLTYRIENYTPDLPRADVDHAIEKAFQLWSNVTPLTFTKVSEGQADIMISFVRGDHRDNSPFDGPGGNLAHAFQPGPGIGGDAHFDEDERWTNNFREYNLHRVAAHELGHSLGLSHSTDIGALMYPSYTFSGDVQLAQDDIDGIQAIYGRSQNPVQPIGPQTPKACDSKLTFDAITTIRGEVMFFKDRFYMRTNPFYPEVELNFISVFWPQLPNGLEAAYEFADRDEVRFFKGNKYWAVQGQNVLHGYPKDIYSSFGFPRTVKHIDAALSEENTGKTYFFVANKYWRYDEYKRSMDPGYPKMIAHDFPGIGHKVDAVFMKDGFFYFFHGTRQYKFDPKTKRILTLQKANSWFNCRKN
Description: MMP-1 of Table 1. The format is biochemical. The conditions noted are these: for MMP-1: unit not given; for pIC50: unit inferred.

In experiment [6] the target is T6, recombinant human MMP-2 (Homo sapiens, UniProt P08253).
T6 sequence (P08253 110-660): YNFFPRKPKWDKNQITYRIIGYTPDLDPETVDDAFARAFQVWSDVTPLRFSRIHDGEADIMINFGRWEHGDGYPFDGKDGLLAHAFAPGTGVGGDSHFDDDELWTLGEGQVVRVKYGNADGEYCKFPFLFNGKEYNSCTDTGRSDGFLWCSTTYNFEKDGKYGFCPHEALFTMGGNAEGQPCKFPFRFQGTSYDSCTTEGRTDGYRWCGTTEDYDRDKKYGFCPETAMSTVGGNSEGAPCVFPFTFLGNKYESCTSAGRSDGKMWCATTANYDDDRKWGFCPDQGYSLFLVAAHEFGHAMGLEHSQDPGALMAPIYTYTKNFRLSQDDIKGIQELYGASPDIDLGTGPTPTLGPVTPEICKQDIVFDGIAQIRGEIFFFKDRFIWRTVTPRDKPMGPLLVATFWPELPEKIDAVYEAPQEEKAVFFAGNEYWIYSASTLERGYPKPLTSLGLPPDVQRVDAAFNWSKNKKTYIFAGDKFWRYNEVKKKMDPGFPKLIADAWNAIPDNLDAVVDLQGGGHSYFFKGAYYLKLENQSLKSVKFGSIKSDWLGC
Description: In vitro fluorescence assay of MMP-2 activity.

As for `CC(C)(C)CNC(=O)[C@H](CCC(=O)O)NC(=O)c1ccc(-c2ccccc2)cc1` [Example 8UUU, N^2-(biphenyl-4-ylcarbonyl)-N^1-(2,2-dimethylpropyl)-L-α-glutamine], the pKi in experiment [1] is 7.22. The pIC50 is 7.21 in experiment [1]; 6.18 in experiment [2]; approximately 4.30 in experiment [3]; less than 3.70 in experiment [4]; 5.05 in experiment [6]. Besides, the MMP-1 entry in experiment [5] is recorded as “no inh”.
For the compound `COc1ccc(CNC(=O)[C@H](CCC(=O)O)NC(=O)c2ccc(-c3ccccc3)cc2)c(OC)c1` [Example 8Y, N^2-(1,1′-biphenyl-4-ylcarbonyl)-N^1-(2,4-dimethoxybenzyl)-L-α-glutamine], the pIC50 in experiment [1] was 7.30; in experiment [2], 6.28; in experiment [3], approximately 4.17; in experiment [4] it was approximately 4.60; in experiment [6], 5.26. For the same compound, the MMP-1 result in experiment [5] was “no inh”.
Turning to `CCCNC(=O)[C@H](CCC(=O)O)NC(=O)c1ccc(-c2ccccc2)cc1` [Example 8YYY, N^2-(biphenyl-4-ylcarbonyl)-N^1-propyl-L-α-glutamine], the pIC50 in experiment [1] is 7.00; in experiment [2], 5.80; in experiment [3], less than 4.30; in experiment [4], less than 3.70; in experiment [6], 5.03. Besides, the MMP-1 entry in experiment [5] was “no inh”.
Turning to `O=C(O)CC[C@H](NC(=O)c1ccc(-c2ccccc2)cc1)C(=O)NCCCCCCO` [Example 8XXX, N^2-(biphenyl-4-ylcarbonyl)-N^1-(6-hydroxyhexyl)-L-α-glutamine], the pIC50 in experiment [1] was 7.52; in experiment [2], 6.03; in experiment [3] it was approximately 4.30; in experiment [4] it was less than 3.70; in experiment [6], 5.10. The MMP-1 result in experiment [5] is given as “no inh”.
Regarding `O=C(O)CC[C@H](NC(=O)c1ccc(-c2ccccc2)cc1)C(=O)NCCc1cccs1` [Example 8WW, N^2-(biphenyl-4-ylcarbonyl)-N^1-[2-(2-thienyl)ethyl]-L-α-glutamine], the pIC50 was 7.15 in experiment [1]; 6.46 in experiment [2]; approximately 4.30 in experiment [3]; less than 4.18 in experiment [4]; 4.88 in experiment [6]. For the same compound, the MMP-1 result in experiment [5] is recorded as “no inh”.
`O=C(O)CC[C@H](NC(=O)c1ccc(-c2ccccc2)cc1)C(=O)NCCc1ccc(F)cc1` [Example 8SS, N^2-(biphenyl-4-ylcarbonyl)-N^1-[2-(4-fluorophenyl)ethyl]-L-α-glutamine]: the pIC50 in experiment [1] is 7.00; in experiment [2], 6.10; in experiment [3], approximately 4.30; in experiment [4] it was less than 4.18; in experiment [6], 4.91. Moreover, in experiment [5], the MMP-1 entry is “no inh”.
`CC(C)(Cc1ccccc1)NC(=O)[C@H](CCC(=O)O)NC(=O)c1ccc(-c2ccccc2)cc1` [Example 8PP, N^2-(biphenyl-4-ylcarbonyl)-N^1-(1,1-dimethyl-2-phenylethyl)-L-α-glutamine]: the pKi in experiment [1] is 8.00. Further, the pIC50 in experiment [1] is more than 7.52; in experiment [2], 7.07; in experiment [3], approximately 4.30; in experiment [4], less than 4.18; in experiment [5] it was less than 3.70; in experiment [6], 5.22.
Regarding `CCCCCCNC(=O)[C@H](CCC(=O)O)NC(=O)c1ccc(-c2ccccc2)cc1` [Example 8VVV, N^2-(biphenyl-4-ylcarbonyl)-N^1-hexyl-L-α-glutamine], the pKi in experiment [1] is 7.42. Moreover, the pIC50 in experiment [1] was 7.52; in experiment [2], 6.38; in experiment [3] it was approximately 4.30; in experiment [4], less than 4.18; in experiment [6] it was 5.25. In experiment [5], the MMP-1 result is “no inh”.
With `CC(C)(Cc1ccc(Cl)cc1)NC(=O)[C@H](CCC(=O)O)NC(=O)c1ccc(-c2ccccc2)cc1` [Example 8NN, N^2-(biphenyl-4-ylcarbonyl)-N^1-[2-(4-chlorophenyl)-1,1-dimethylethyl]-L-α-glutamine], in experiment [1], the pKi was 7.85. In addition, the pIC50 in experiment [1] is more than 7.52; in experiment [2] it was 6.88; in experiment [3], approximately 4.30; in experiment [5], less than 3.70; in experiment [6], 5.05. In experiment [4] (unit not given), the MMP-14 result is “no inh”.
As to `O=C(O)CC[C@H](NC(=O)c1ccc(-c2ccccc2)cc1)C(=O)NC1Cc2ccccc2C1` [Example 6A, N^2-(1,1′-biphenyl-4-ylcarbonyl)-N^1-2,3-dihydro-1H-inden-2-yl-L-α-glutamine], the pIC50 is 6.82 in experiment [1]; 6.13 in experiment [2]; less than 4.30 in experiment [3]; less than 3.70 in experiment [4]; less than 4.30 in experiment [5]; 4.53 in experiment [6].
As for `COc1cccc(CCNC(=O)[C@H](CCC(=O)O)NC(=O)c2ccc(-c3ccccc3)cc2)c1` [Example 8X, N^2-(1,1′-biphenyl-4-ylcarbonyl)-N^1-[2-(3-methoxyphenyl)ethyl]-L-α-glutamine], the pIC50 in experiment [1] is 7.00; in experiment [2], 5.96; in experiment [3] it was approximately 4.17; in experiment [4], approximately 4.60; in experiment [6], 5.15. Also, in experiment [5], the MMP-1 result is reported as “no inh”.
With `O=C(CC[C@H](NC(=O)c1ccc(-c2ccccc2)cc1)C(=O)NCc1cccc(OC(F)(F)F)c1)NO` [Example 33D, N^2-(1,1′-biphenyl-4-ylcarbonyl)-N^5-hydroxy-N^1-[3-(trifluoromethoxy)benzyl]-L-α-glutamamide], the pIC50 was more than 8.00 in experiment [1]; 7.87 in experiment [2]; 7.28 in experiment [3]; 7.13 in experiment [4]; approximately 5.81 in experiment [5]; 8.48 in experiment [6].
Consider `COc1ccccc1CNC(=O)[C@H](CCC(=O)O)NC(=O)c1ccc(-c2ccccc2)cc1` [Example 8Z, N^2-(1,1′-biphenyl-4-ylcarbonyl)-N^1-(2-methoxybenzyl)-L-α-glutamine], for which the pIC50 in experiment [1] was 7.10; in experiment [2] it was 6.17; in experiment [3], approximately 4.17; in experiment [4], approximately 4.60; in experiment [6] it was 5.42. Also, the MMP-1 entry in experiment [5] was “no inh”.
Consider `COc1cc(CNC(=O)[C@H](CCC(=O)NO)NC(=O)c2ccc(-c3ccccc3)cc2)cc(OC)c1OC` [Example 33A, N^2-(1,1′-biphenyl-4-ylcarbonyl)-N^5-hydroxy-N^1-(3,4,5-trimethoxybenzyl)-L-α-glutamamide], for which the pIC50 in experiment [1] is more than 8.00; in experiment [2] it was 8.59; in experiment [3], 7.49; in experiment [4], 6.95; in experiment [5], 5.76; in experiment [6] (read-out: MMP-2, Table 1, unit inferred) it was 8.33.
